Assay results taken from patent US20100119607A1, “BIOENHANCED COMPOSITIONS” (Rubicon Research Pvt. Ltd., priority 2005, published 2010).
In brackets after ≈: the same amount, converted by molar mass. Structures can show the parent of a compound that is named as a salt. Where two headings read alike, the source gives them in different places.

Assays:
[1] = 0.1N HCL with 0.5% SLS, USP Type II, 50 RPM
[2] = background statement in detailed description; cited from earlier work
[3] = Solubility of eprosartan mesylate solid dispersions in 0.1N HCl; assay type: physicochemical; conditions: simulated gastric fluid, thermodynamic from solid
[4] = Solubility of candesartan cilexetil dispersions in 0.1N HCl; assay type: physicochemical; conditions: simulated gastric fluid

SMILES: CCCCC(=O)N(Cc1ccc(-c2ccccc2-c2nnn[nH]2)cc1)[C@H](C(=O)O)C(C)C [Valsartan, valsartan]
- % Cum. Dissolved ([1]; 0 minutes): 0%
- % Cum. Dissolved ([1]; 5 minutes): 1.0%
- % Cum. Dissolved ([1]; 10 minutes): 4.1%
- % Cum. Dissolved ([1]; 15 minutes): 6.7%
- % Cum. Dissolved ([1]; 30 minutes): 6.5%
- % Cum. Dissolved ([1]; 60 minutes): 9.7%
- % Cum. Dissolved ([1]; 120 minutes): 15.7%
- % Cum. Dissolved ([1]; 120 minutes, listed as pure valsartan): 15%
- bioavailability [2]: 10-25%

SMILES: CCCCc1ncc(/C=C(\Cc2cccs2)C(=O)O)n1Cc1ccc(C(=O)O)cc1 [Eprosartan mesylate, eprosartan mesylate]
- solubility [3]: 712 µg/mL

SMILES: CCOc1nc2cccc(C(=O)OC(C)OC(=O)OC3CCCCC3)c2n1Cc1ccc(-c2ccccc2-c2nnn[nH]2)cc1 (centres unmarked) [Candesartan cilexetil, candesartan cilexetil]
- solubility [4]: 0.51 µg/mL (≈ 0.835 µM)
